Key:
[1] = test system: None (vector without insert); test: 3ERE-URA3 reporter in yeast strain PL3, vector without insert (control "None"); format: cell-based; settings: no receptor, yeast PL3, in presence of ligand
hRAR-γ binding to β-RARE = molecular target: T1, hRAR-γ binding to β-RARE (Homo sapiens, UniProt P13631); test: Gel retardation assay of RAR binding to β-RARE (RBF complementation); settings: with HeLa cell NE
T1 construct: fused to the amino terminal amino acid of full length hRAR-γ; 14 amino acids from the parental vector pEt3a (bacterially expressed preparation only) (N); made in house; host or cells: E. coli BL21 (DE3) plysS; also rVV-infected HeLa cells, rBV-infected Sf9 cells, yeast (ubiquitin fusion) and rabbit reticulocyte lysate
T1 sequence (P13631 1-454): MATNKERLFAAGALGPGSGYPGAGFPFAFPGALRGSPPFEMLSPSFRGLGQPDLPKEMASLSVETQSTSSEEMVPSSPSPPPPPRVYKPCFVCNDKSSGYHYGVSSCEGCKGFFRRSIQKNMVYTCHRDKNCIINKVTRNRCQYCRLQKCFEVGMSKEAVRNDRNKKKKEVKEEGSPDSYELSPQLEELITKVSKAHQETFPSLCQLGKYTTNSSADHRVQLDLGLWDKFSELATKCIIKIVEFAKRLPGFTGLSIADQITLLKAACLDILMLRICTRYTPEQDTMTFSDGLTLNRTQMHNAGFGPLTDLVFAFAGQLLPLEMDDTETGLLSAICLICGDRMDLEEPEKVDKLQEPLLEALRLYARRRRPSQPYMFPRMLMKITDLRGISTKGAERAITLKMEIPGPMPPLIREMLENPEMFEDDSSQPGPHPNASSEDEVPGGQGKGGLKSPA
T1 sequence (P28702 1-533 partner): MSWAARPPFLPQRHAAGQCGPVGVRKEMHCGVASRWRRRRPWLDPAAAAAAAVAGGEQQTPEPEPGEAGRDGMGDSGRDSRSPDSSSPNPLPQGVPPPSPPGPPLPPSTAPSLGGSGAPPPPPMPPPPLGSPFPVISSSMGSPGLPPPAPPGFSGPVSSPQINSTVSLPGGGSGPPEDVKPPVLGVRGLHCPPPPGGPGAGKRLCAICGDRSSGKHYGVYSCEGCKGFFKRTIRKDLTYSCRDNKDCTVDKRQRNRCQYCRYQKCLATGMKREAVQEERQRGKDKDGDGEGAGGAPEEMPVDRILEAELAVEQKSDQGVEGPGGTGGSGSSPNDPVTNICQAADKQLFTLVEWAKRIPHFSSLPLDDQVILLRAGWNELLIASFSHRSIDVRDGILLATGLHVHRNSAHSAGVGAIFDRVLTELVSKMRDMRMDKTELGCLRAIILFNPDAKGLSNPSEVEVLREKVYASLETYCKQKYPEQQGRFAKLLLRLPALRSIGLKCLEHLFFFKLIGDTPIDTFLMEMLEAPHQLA
Description: For gel retardation experiments comparing RAR and RXR subtypes and deletion mutants, all proteins were produced by in vitro translation in the presence of [^35S]methionine.
Purification of rVV- and rBV-expressed hRAR-γ is being described elsewhere (Chen et al., manuscript in preparation). […] All steps were carried out at 4° C. and RBF activity was monitored through all purification steps by a complementation gel retardation assay using bacterially-expressed hRAR-γ as described above. […] The column was washed with equilibration buffer until the A280 of the eluent returned to baseline. […] The column was washed with equilibration buffer until the A280 of the eluent returned to baseline and then with 4 column volumes of buffer A containing 0.45 M ammonium sulfate and 50 mM KCl. The column was then eluted with an 18 ml linear gradient from 0.45 to 0 M ammonium sulfate in buffer A containing 50 mM KCl.

RARα = molecular target: T2, RARα (Homo sapiens, UniProt P10276); test: URA3 reporter (DR5 etc.) transactivation in yeast strain YPH250 (OMPdecase activity); format: cell-based; settings: RARα alone, ligand 5×10^−7 M (500 nM)
T2 construct: The human RARα1 (aa 1-462); expressed in transfected cells; host or cells: Saccharomyces cerevisiae YPH250 (YEp10/YEp90)
T2 sequence (P10276 1-462): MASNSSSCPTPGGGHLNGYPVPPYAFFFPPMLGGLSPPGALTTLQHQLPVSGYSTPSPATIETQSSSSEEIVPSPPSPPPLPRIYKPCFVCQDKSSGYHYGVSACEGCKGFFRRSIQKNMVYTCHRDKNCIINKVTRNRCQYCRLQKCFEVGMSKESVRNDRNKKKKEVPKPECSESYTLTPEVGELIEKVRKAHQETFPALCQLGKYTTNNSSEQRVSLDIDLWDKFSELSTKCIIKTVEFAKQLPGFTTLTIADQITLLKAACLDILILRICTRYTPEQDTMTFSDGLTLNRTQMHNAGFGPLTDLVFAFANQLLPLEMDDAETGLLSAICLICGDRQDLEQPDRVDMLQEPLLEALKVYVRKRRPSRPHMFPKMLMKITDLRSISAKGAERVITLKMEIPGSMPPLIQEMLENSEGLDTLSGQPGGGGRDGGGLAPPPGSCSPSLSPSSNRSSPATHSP

[2] = test system: RARα and RXRα homodimers or heterodimers
RARα1-ER.CAS = molecular target: T3, RARα1-ER.CAS (Homo sapiens, UniProt P10276, INS60IETQSSSSEEIVPSPPSPPPLPRIYKPCAVCNDYASGYHYGVWSCEGCKAFFKRSIQGHNDYMCPATNQCTIDKNRRKSCQACRLRKCYEVGMSKES)
T3 sequence (P10276 with tags, fused parts or gaps isoform P10276-3): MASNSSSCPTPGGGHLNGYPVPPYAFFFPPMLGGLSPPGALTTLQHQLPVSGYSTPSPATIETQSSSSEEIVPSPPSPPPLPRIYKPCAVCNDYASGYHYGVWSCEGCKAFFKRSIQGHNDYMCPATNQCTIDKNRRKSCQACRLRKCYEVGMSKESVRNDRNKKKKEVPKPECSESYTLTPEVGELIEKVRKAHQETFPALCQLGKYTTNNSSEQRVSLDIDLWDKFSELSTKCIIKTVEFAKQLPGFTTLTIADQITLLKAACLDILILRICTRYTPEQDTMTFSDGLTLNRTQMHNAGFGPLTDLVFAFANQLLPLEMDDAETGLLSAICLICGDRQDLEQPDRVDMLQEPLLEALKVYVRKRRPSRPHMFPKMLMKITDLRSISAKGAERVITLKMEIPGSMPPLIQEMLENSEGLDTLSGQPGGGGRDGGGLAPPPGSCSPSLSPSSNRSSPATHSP
Description: The 5′ prime flank of each construct contains a mammalian Kozak's sequence sandwiched between the EcoR1 and the translation start codon (5′-[…]-3′). […] PCR and site-directed mutagenesis were used to create RARα(DEF)-ER.CAS, RARα1(AB)-ER(C), RXRα(DE)-ER.CAS and RXRα(AB)-ER(C) as shown in FIG. 10a. All sequences generated by PCR or site directed mutagenesis were verified by sequencing. […] For transactivation experiments, transformants were grown exponentially for approximately 5 generations in selective medium […] uracil in the presence or absence of ligand, in conditions of diffuse light.
(§1) Induction of the reporter was determined by measuring the specific activity of the URA3 gene product OMPdecase (see above).
Vector without insert was used as a control (“None”). Transactivation data are expressed as OMPdecase activities; the mean values shown in the table were determined from duplicate assays with three individual transformants for each clone. The numbers in parentheses indicate the fold induction over the activity observed for each receptor in the absence of ligand.

RXRα-ER(C) = molecular target: T4, RXRα-ER(C) (Mus musculus, UniProt P28700, A202E/D171H/D178A/D181Q/G144N/G162A/I142V/INS139MESAKETRY/INS205MKGGIRKDRRGGRMLKHKRQRDDGEGRGEVGSM/K150Y/K170G/K180N/L172N/L183T/L201Y/M203V/N179T/N190K/Q188R/Q198R/R146Y/R169Q/R177P/R187N/R191S/S147A/T167S/T173D/T175M/V168I/Y155W/Y194A/Y197L); test: 3ERE-URA3 reporter transactivation in yeast strain PL3 (OMPdecase activity); format: cell-based
T4 construct: (a.a. 1 to 467), mouse RXRαdn; expressed in transfected cells; host or cells: Saccharomyces cerevisiae PL3 (multicopy YEp10/YEp90, PGK promoter)
T4 sequence (P28700 with tags, fused parts or gaps INS139MESAKETRY/I142V/G144N/R146Y/S147A/K150Y/Y155W/G162A/T167S/V168I/R169Q/K170G/D171H/L172N/T173D/T175M/R177P/D178A/N179T/K180N/D181Q/L183T/R187N/Q188R/N190K/R191S/Y194A/Y197L/Q198R/L201Y/A202E/M203V/INS205MKGGIRKDRRGGRMLKHKRQRDDGEGRGEVGSM): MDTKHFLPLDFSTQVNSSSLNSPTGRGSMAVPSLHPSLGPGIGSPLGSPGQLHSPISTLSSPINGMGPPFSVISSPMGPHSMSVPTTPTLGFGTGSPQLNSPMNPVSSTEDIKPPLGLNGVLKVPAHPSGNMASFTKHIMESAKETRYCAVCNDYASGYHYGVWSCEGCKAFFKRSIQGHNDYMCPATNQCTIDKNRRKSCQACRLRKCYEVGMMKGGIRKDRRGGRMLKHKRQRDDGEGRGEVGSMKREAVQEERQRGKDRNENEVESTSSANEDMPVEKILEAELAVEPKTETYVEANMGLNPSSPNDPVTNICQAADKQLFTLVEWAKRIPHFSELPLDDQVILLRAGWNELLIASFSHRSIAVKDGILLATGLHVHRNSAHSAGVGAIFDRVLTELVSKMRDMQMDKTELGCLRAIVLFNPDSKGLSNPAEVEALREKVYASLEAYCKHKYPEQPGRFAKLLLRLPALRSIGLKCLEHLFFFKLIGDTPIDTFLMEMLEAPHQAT
Description: as §1
Vector without insert was used as a control (“None”).

[3] = FIG. 10b dose response, FIG. 10c ligand 10^−6 M

CC1=C(/C=C/C(C)=C/C=C/C(C)=C/C(=O)O)C(C)(C)CCC1 [T-RA, all-trans retinoic acid]
OMP decase activity units [1]: 0.02 units
effect on formation of the hRAR-γ/β-RARE complex (hRAR-γ binding to β-RARE): In no case was the formation of the complex affected
induction of OMPdecase activity, DR5-URA3 reporter (RARα): approx. 5 fold
effect on binding of homodimers or heterodimers to the probes [2]: did not further stimulate
OMP decase activity units (RARα1-ER.CAS; 3ERE-URA3 reporter, yeast PL3, in presence of ligand): 14.70 units
stimulation of transactivation by RARα1-ER.CAS (RARα1-ER.CAS; [3]): comparably stimulated

CC1=C(/C=C/C(C)=C\C=C\C(C)=C\C(=O)O)C(C)(C)CC=C1 [9C-ddRA, 9-cis 3,4-didehydroretinoic acid]
induction of activation by RXRα-ER(C) (RXRα-ER(C); [3]): induced

CC1=C(/C=C/C(C)=C/C=C/C(C)=C/C(=O)O)C(C)(C)CC=C1 [T-ddRA, all-trans 3,4-didehydroretinoic acid]
conversion to 9-cis stereoisomers in yeast (RXRα-ER(C); inferred from lack of RXRα-ER(C) activation): not significantly converted

CC1=C(/C=C/C(C)=C\C=C\C(C)=C\C(=O)O)C(C)(C)CCC1 [9C-RA, 9-cis retinoic acid]
OMP decase activity units [1]: 0.02 units
effect on binding of homodimers or heterodimers to the probes [2]: did not further stimulate

From patent US6635429B1, “Heterodimeric nuclear receptors proteins, genes encoding same, and usage thereof” (Institut National de la Sante et de la Recherche Medicale, priority 1992, dated 2003)
